# Assay results reported in paper PMC8228819, “Comparison of a Short Linear Antimicrobial Peptide with Its Disulfide-Cyclized and Cyclotide-Grafted Variants against Clinically Relevant Pathogens” (Microorganisms, 2021).
# Where two headings read alike, the source gives them in different places. Marks after values point to notes of the source that are not given here. Bridge positions count the residues as written; N and C are the ends. Square brackets hold non-standard residues; d marks the D form. Ends that are not written are not given here. Peptide text beside a SMILES is read from it. βAla = NCCC(=O)O
# Tests used:
# pH stability = type: physicochemical; conditions: 20 μM, pH 1.2 and 7.5, 24 h, UPLC
# Procedure: (§1) Serum stability assays were performed in 100% human serum (Sigma-Aldrich, St. Louis MO, USA, human male AB plasma). Serum was centrifuged to remove lipids and incubated with the peptides at 100 μM for 0, 0.5, 1, 3, 6, and 24 h at 37 °C. Serum proteins were precipitated by adding 3 μL of TFA to 40 μL of peptide – serum sample (final TFA 7%). The remaining supernatant was diluted with 50:50 solvent A/B. The amount of peptide remaining (%) was quantified by UPLC-MS analysis. For pH stability experiments, peptides were incubated at a concentration of 20 μM at pH 1.2 and 7.5 for 24 h, and stability was monitored by UPLC analysis.
# [1] = test system: Staphylococcus aureus, epidemic methicillin-resistant EMRSA-15; type: cell-based
# Procedure: (§2) The following strains were used in this study: Escherichia coli, ATCC 25922, Staphylococcus aureus, epidemic methicillin-resistant EMRSA-15, Klebsiella pneumoniae, clinical isolate from St George’s, University of London (SGUL, London, UK), Acinetobacter baumannii, clinical isolate from SGUL, Pseudomonas aeruginosa, PA01 wildtype strain, and Enterococcus faecalis, vancomycin-resistant ATCC 51299.
# (§3) The minimal inhibitory concentration (MIC) was determined in a microdilution assay using Mueller–Hinton (MH) or Brain Heart Infusion Broth (BHI) broth following a previously published protocol. Briefly, a twofold serial dilution of the antibiotics and peptides were prepared and added to a bacteria solution, resulting in 2–5 10^5 CFU/mL. The microtiter plates (polypropylene, Corning, Corning, NY, USA) were incubated for 18 h at 37 °C and MICs were taken visually. Based on our experience with proline rich peptides, their low activity in Mueller–Hinton broth, and their strong activity in diluted broth, we decided to also measure the activity of the peptide set in a 1/5 dilution of the broth. MICs in the presence of serum were established using human serum (Zen-Bio, Durham, NC, USA) and heat-inactivated serum (Sigma-Aldrich, St. Louis, MO, USA). A total of 20% (v/v) of each human serum was mixed with bacterial solution and added to predetermined concentrations of antibiotics and peptides, resulting in a final 10% (v/v) concentration of serum and 2–5 × 10^5 bacteria.
# [2] = test system: Enterococcus faecalis, vancomycin-resistant ATCC 51299; type: cell-based
# Procedure: as §2, §3
# [3] = test system: Klebsiella pneumoniae, clinical isolate from St George's, University of London; type: cell-based
# Procedure: as §2, §3
# Serum stability assay = type: in vitro ADME, human; conditions: for half-life at 100 μM: 100% human serum (Sigma-Aldrich, human male AB plasma), 100 μM peptide, 0-24 h, TFA precipitation, triplicates; for Peptide state after one hour in human serum: 1 h
# Procedure: as §1
# E. coli (ATCC 25922) = assay: Time kill assay; type: cell-based, Escherichia coli; conditions: 1/5 (20%) MH broth, 3 times the MIC, 1 × 10^6 CFU/mL, 37 °C, 10-1440 min, three experiments
# Procedure: Overnight culture of E. coli (ATCC 25922) was diluted for approximately two hours to achieve logarithmic phase. The logarithmic phase inoculum was then adjusted to 1 × 10^6 CFU/mL in 20% MH broth. Within a 1.5 mL microfuge tube (STARLAB (UK) Limited, Milton Keynes, UK), the peptides were added to the inoculum at a concentration that was threefold the MIC against E coli. The tubes were placed in a shaking incubator (225 rpm) at 37 °C. At predetermined time points between 0 and 24 h: 10, 20, 40, 60, 120, 240, and 1440 min for the peptides, and for the untreated control: 0, 60, 120, 240, and 1080 min, 100 µl samples were taken out. Furthermore, a 1 in 10 dilution series using sterile 10 mM Tris buffer (pH 7.5) was performed using the removed sample, then 5 × 5 µL were spotted for each dilution onto MH agar plates and incubated at 37 °C. The next day, the colonies were counted and the colony forming units, CFU/mL for each time point, were determined.
# [4] = test system: Acinetobacter baumannii, clinical isolate from SGUL; type: cell-based; conditions: for MIC: triplicate, modal value
# Procedure: as §2, §3
# [5] = test system: Pseudomonas aeruginosa, PA01 wildtype strain; type: cell-based; conditions: for MIC: triplicate, modal value
# Procedure: as §2, §3
# [6] = test system: Escherichia coli, ATCC 25922; type: cell-based; conditions: for MIC: triplicate, modal value
# Procedure: as §2, §3
# [7] = test system: ESKAPE pathogens (E. faecalis, S. aureus, K. pneumoniae, A. baumannii, P. aeruginosa, E. coli); assay: MIC summary over the ESKAPE panel; type: cell-based
# Procedure: as §2, §3
# E. coli = conditions: cited from earlier work
# Source text: (§4) Several naturally occurring cyclotide sequences have been proposed to have antimicrobial activity. However, the cyclotides tested in that study were synthetically made and had rather weak activity against a range of common pathogenic bacteria, including Escherichia coli and Staphylococcus aureus, but were only active in low salt media, losing all activity under physiological conditions. A number of other studies have also reported antibacterial activity for some natural cyclotides or synthetic derivatives of them. For example, fractions comprised of cyclotid ...
# Staphylococcus aureus = conditions: cited from earlier work
# Source text: as §4
# [8] = test system: S. enterica serovar Typhimurium LT2; conditions: cited from earlier work
# Source text: as §4
# [9] = 1/5 MH + 10% heat inactivated human serum, triplicate, modal value
# [10] = 1/5 MH + 10% human serum, triplicate, modal value
# [11] = 1/5 MH, triplicate, modal value
# [12] = MH + 10% human serum, triplicate, modal value
# [13] = 100% human serum, 100 μM, 37 °C, UPLC-MS
# [14] = ratio of MICs (fold loss of activity in serum)
# [15] = MH, single measurement (asterisk)
molecule,measurement,setting,value
KRRVRWIIW-NH2 [optP7],pH stability,pH stability,exceptional stability over 24 h
same,MIC,[1]; [9],6 µM
same,MIC,[1]; [10],6 µM
same,MIC,[1]; [11],1.5 µM
same,MIC,[1]; [12],49 µM
same,MIC,"[1]; MH, triplicate, modal value",6 µM
same,MIC,"[2]; ATCC 51299, 18 h",0.8 µM
same,MIC,"[3]; clinical isolate from St George's, University of London, 18 h",1.5 µM
same,half-life at 100 μM,"Serum stability assay; 37 °C, UPLC-MS",13 min
same,Peptide state after one hour in human serum,Serum stability assay; [13],fully degraded
"CC[C@H](C)[C@@H]1NC(=O)[C@@H]2CSSC[C@@H]3NC(=O)[C@H](Cc4c[nH]c5ccccc45)NC(=O)[C@H]([C@@H](C)CC)NC(=O)[C@H]([C@@H](C)CC)NC(=O)[C@H](Cc4c[nH]c5ccccc45)NC(=O)[C@H](CCCNC(=N)N)NC(=O)[C@H](C(C)C)NC(=O)[C@H](CCCNC(=N)N)NC(=O)[C@H](CCCNC(=N)N)NC(=O)[C@H](CCCCN)NC(=O)[C@@H]4CSSC[C@H](NC(=O)[C@H](CC(=O)O)NC(=O)[C@H](CO)NC(=O)[C@H](CC(=O)O)NC(=O)[C@H](CCCNC(=N)N)NC(=O)[C@H](CCCNC(=N)N)NC(=O)[C@H](CSSC[C@H](NC1=O)C(=O)N[C@@H](CCCNC(=N)N)C(=O)NCC(=O)N[C@@H](CC(N)=O)C(=O)NCC(=O)N[C@@H](Cc1ccc(O)cc1)C(=O)N4)NC(=O)[C@H](CCCCN)NC(=O)[C@H](CCCCN)NC(=O)[C@H](CC(C)C)NC(=O)[C@H]([C@@H](C)CC)NC(=O)[C@H](CCCCN)NC(=O)[C@@H]1CCCN1C3=O)C(=O)N1CCC[C@H]1C(=O)NCC(=O)N[C@@H](C)C(=O)N2 [[L6-optP7]Mco] (cyclo(ACICRGNGYCKRRVRWIIWCPKILKKCRRDSDCPG); disulfide 2-20, 4-27, 10-33)",pH stability,pH stability,minor signs of degradation after 24 h at low pH
same,Kinetics of killing,E. coli (ATCC 25922),drastically slower acting
same,Ratio of MIC of cyclized peptide version over MIC of the linear peptide optP7,[4]; 1/5 MH,5
same,Ratio of MIC of cyclized peptide version over MIC of the linear peptide optP7,[4]; 1/5 MH + 10% human serum,10.3
same,Improvement of activity when diluting the broth,[4]; 1/5 MH versus MH,15.5 fold
same,Ratio of MIC of cyclized peptide version over MIC of the linear peptide optP7,[4]; MH,41.3
same,Ratio 1/5 MH + 10% serum/ 1/5MH,[4]; ratio of MICs,7.75
same,Ratio of MIC of cyclized peptide version over MIC of the linear peptide optP7,[5]; 1/5 MH,10.0
same,Ratio of MIC of cyclized peptide version over MIC of the linear peptide optP7,[5]; 1/5 MH + 10% human serum,1.3
same,Improvement of activity when diluting the broth,"[5]; 1/5 MH versus MH, Table 2 data",7.8 fold
same,Improvement of activity in diluted media,"[5]; 1/5 MH versus MH, fractions of Table 1",7.8 fold
same,Ratio of MIC of cyclized peptide version over MIC of the linear peptide optP7,[5]; MH,20.6
same,Ratio 1/5 MH + 10% serum/ 1/5MH,[5]; [14],1
same,Ratio 1/5 MH + 10% serum/ 1/5MH,[1]; ratio of MICs,>7.8
same,Ratio of MIC of cyclized peptide version over MIC of the linear peptide optP7,[6]; 1/5 MH + 10% human serum,18.8
same,Improvement of activity when diluting the broth,[6]; 1/5 MH versus MH,31 fold
same,Ratio of MIC of cyclized peptide version over MIC of the linear peptide optP7,"[6]; 1/5 MH, average used for an MIC range",3.3
same,Ratio of MIC of cyclized peptide version over MIC of the linear peptide optP7,[6]; MH,77.5
same,Ratio 1/5 MH + 10% serum/ 1/5MH,[6]; [14],7.5
same,Ratio of MIC of cyclized peptide version over MIC of the linear peptide optP7,[2]; 1/5 BHI,18.8
same,Ratio of MIC of cyclized peptide version over MIC of the linear peptide optP7,[2]; 1/5 BHI + 10% human serum,2.6
same,Ratio 1/5 BHI + 10% serum/ 1/5BHI,[2]; ratio of MICs,4.1
same,Ratio of MIC of cyclized peptide version over MIC of the linear peptide optP7,[3]; 1/5 MH,20.7
same,Improvement of activity when diluting the broth,[3]; 1/5 MH versus MH,2 fold
same,Ratio of MIC of cyclized peptide version over MIC of the linear peptide optP7,[3]; MH,41.3
same,"Average activity decrease, lower than for c-opt7",[7],1.6 fold
same,Average activity decrease factor compared to linear optP7,[7]; all conditions of Table 3,15.5 fold
same,Antimicrobial activity in broth (in words),[7]; undiluted broth,medium to weak
same,Increase in stability against degradation in 100% human serum compared to the linear variant,Serum stability assay; 100% human serum,33 fold
same,"remaining at 24 h, 100 μM","Serum stability assay; male, 100% human serum (human male AB plasma), 100% human serum, 100 μM, 37 °C, 24 h, UPLC-MS, read-out: Peptide still present after 24 h in human serum",~30%
cycloviolacin O2,MIC,E. coli,2 µM
same,MIC,Staphylococcus aureus,> 50 µM
same,MIC,[8],~9 µM
CC[C@H](C)[C@@H]1NC(=O)[C@H](Cc2c[nH]c3ccccc23)NC(=O)[C@H](CCCNC(=N)N)NC(=O)[C@H](C(C)C)NC(=O)[C@H](CCCNC(=N)N)NC(=O)[C@H](CCCNC(=N)N)NC(=O)[C@H](CCCCN)NC(=O)CCNC(=O)CCNC(=O)[C@@H](N)CSSC[C@@H](C(=O)O)NC(=O)CCNC(=O)CCNC(=O)[C@H](Cc2c[nH]c3ccccc23)NC(=O)[C@H]([C@@H](C)CC)NC1=O [c-optP7] (H-C[βAla][βAla]KRRVRWIIW[βAla][βAla]C-OH; disulfide 1-15),pH stability,pH stability,exceptional stability over 24 h
same,MIC,[4]; 1/5 MH + 10% human serum,71 µM
same,MIC,[4]; 1/5 MH,4 µM
same,MIC,[5]; 1/5 MH + 10% human serum,35 µM
same,MIC,[5]; 1/5 MH,9 µM
same,MIC,[5]; MH + 10% human serum,>142 µM
same,MIC,"[5]; MH, microdilution, 18 h 37 °C, visual",142 µM
same,MIC,[1]; [9],>142 µM
same,MIC,[1]; [10],>142 µM
same,MIC,[1]; [11],18 µM
same,MIC,[1]; [12],>142 µM
same,MIC,"[1]; MH, triplicate, modal value",142 µM
same,MIC,[6]; 1/5 MH + 10% heat inactivated human serum,35 µM
same,MIC,[6]; 1/5 MH + 10% human serum,18 µM
same,MIC,[6]; 1/5 MH,4 to 9 µM
same,MIC,[6]; MH + 10% human serum,>142 µM
same,MIC,[6]; MH,71 µM
same,MIC,"[2]; 1/5 BHI + 10% human serum, triplicate, modal value",>142 µM
same,MIC,"[2]; 1/5 BHI, triplicate, modal value",18 µM
same,MIC,"[2]; BHI, single measurement (asterisk)",>142 * µM
same,MIC,[3]; [10],142 µM
same,MIC,[3]; [11],71 µM
same,MIC,[3]; [15],>142 * µM
same,half-life at 100 μM,"Serum stability assay; 37 °C, UPLC-MS",9 min
same,Peptide state after one hour in human serum,Serum stability assay; [13],fully degraded
"CC[C@H](C)[C@H](NC(=O)CN)C(=O)NCC(=O)N[C@@H](C)C(=O)N[C@H](C(=O)N[C@@H](CC(C)C)C(=O)N[C@@H](CCCCN)C(=O)N[C@H](C(=O)N[C@@H](CC(C)C)C(=O)N[C@H](C(=O)N[C@H](C(=O)NCC(=O)N[C@@H](CC(C)C)C(=O)N1CCC[C@H]1C(=O)N[C@@H](C)C(=O)N[C@@H](CC(C)C)C(=O)N[C@H](C(=O)N[C@@H](CO)C(=O)N[C@@H](Cc1c[nH]c2ccccc12)C(=O)N[C@H](C(=O)N[C@@H](CCCCN)C(=O)N[C@@H](CCCNC(=N)N)C(=O)N[C@@H](CCCCN)C(=O)N[C@@H](CCCNC(=N)N)C(=O)N[C@@H](CCC(N)=O)C(=O)N[C@@H](CCC(N)=O)C(N)=O)[C@@H](C)CC)[C@@H](C)CC)[C@@H](C)O)[C@@H](C)O)C(C)C)C(C)C [Melittin, reference compound]",MIC,"[1]; 1/5 MH + 10% heat inactivated human serum, single measurement (asterisk)",1.4 µM
same,MIC,"[1]; 1/5 MH + 10% human serum, single measurement (asterisk)",1.4 µM
same,MIC,"[1]; 1/5 MH, single measurement (asterisk)",0.7 µM
same,MIC,[1]; [15],4 µM
